From patent publication US12421209B2, “Compounds” (Hoffmann-La Roche Inc., priority 2021, dated 2025)

Assays:
NLRP3 [1] = target: T1, NLRP3 (Homo sapiens, UniProt Q96P20); test: THP-1 cells pyroptosis assay (LPS priming, nigericin, resazurin read-out); assay type: cell-based; design: Seed THP-1 cells (25,000 cells/well) containing 1.0 μg/ml LPS; host or cells: THP-1 cells; conditions: 1.0 μg/ml LPS, 5 μM nigericin
Method: THP-1 cells (ATCC #TIB-202) were grown in RPMI containing L-glutamine (Gibco #11835) supplemented with 1 mM sodium pyruvate (Sigma #S8636) and penicillin (100 units/ml)/streptomycin (0.1 mg/ml) (Sigma #P4333) in 10% Fetal Bovine Serum (FBS) (Sigma #F0804). The cells were routinely passaged and grown to confluency (˜10^6 cells/ml). On the day of the experiment, THP-1 cells were harvested and resuspended into RPMI medium (without FBS). The cells were then counted and viability (>90%) checked by Trypan blue (Sigma #T8154). Appropriate dilutions were made to give a concentration of 625,000 cells/ml. To this diluted cell solution was added LPS (Sigma #L4524) to give a lug/ml Final Assay Concentration (FAC). 40 μl of the final preparation was aliquoted into each well of a 96-well plate. The plate thus prepared was used for compound screening.
The following method step-by-step assay was followed for compound screening. • 1. Seed THP-1 cells (25,000 cells/well) containing 1.0 μg/ml LPS in 40 μl of RPMI medium (without FBS) in 96-well, black walled, clear bottom cell culture plates coated with poly-D-lysine (VWR #734-0317) • 2. Add 5 μl compound (8 points half-log dilution, with 10 μM top dose) or vehicle (DMSO 0.1% FAC) to the appropriate wells • 3. Incubate for 3 hours at 37° C., 5% CO2 • 4. Add 5 μl nigericin (Sigma #N7143) (FAC 5 μM) to all wells • 5. Incubate for 1 hr at 37° C., 5% CO2 • 6. At the end of the incubation period, spin plates at 300×g for 3 mins and remove supernatant • 7. Then add 50 μl of resazurin (Sigma #R7017) (FAC 100 μM resazurin in RPMI medium without FBS) and incubate plates for a further 1-2 hours at 37° C. and 5% CO2 • 8. Plates were read in an Envision reader at Ex 560 nm and Em 590 nm • 9. IC50 data is fitted to a non-linear regression equation (log inhibitor vs response-variable slope 4-parameters)

NLRP3 [2] = target: T1, NLRP3; test: Human whole blood IL-1β release assay (LPS, nigericin, AlphaLisa); assay type: cell-based; design: Human whole blood in Li-heparin tubes was obtained from healthy donors; from tissue; host or cells: human whole blood from healthy donors; conditions: 10 μM nigericin
Method: For systemic delivery, the ability to inhibit NLRP3 when the compounds are present within the bloodstream is of great importance. For this reason, the NLRP3 inhibitory activity of a number of compounds in human whole blood was investigated in accordance with the following protocol.
Human whole blood in Li-heparin tubes was obtained from healthy donors from a volunteer donor panel. • 1. Plate out 80 μl of whole blood containing lug/ml of LPS in 96-well, clear bottom cell culture plate (Corning #3585) • 2. Add 10 μl compound (8 points half-log dilution with 10 μM top dose) or vehicle (DMSO 0.1% FAC) to the appropriate wells • 3. Incubate for 3 hours at 37° C., 5% CO2 • 4. Add 10 μl nigericin (Sigma #N7143) (10 μM FAC) to all wells • 5. Incubate for 1 hr at 37° C., 5% CO2 • 6. At the end of the incubation period, spin plates at 300×g for 5 mins to pellet cells and remove 20 μl of supernatant and add to 96-well v-bottom plates for IL-1β analysis (note: these plates containing the supernatants can be stored at −80° C. to be analysed at a later date) • 7. IL-1β was measured according to the manufacturer protocol (Perkin Elmer-AlphaLisa IL-1 Kit AL220F-5000) • 8. IC50 data is fitted to a non-linear regression equation (log inhibitor vs response-variable slope 4-parameters)

T1 sequence (Q96P20 whole entry): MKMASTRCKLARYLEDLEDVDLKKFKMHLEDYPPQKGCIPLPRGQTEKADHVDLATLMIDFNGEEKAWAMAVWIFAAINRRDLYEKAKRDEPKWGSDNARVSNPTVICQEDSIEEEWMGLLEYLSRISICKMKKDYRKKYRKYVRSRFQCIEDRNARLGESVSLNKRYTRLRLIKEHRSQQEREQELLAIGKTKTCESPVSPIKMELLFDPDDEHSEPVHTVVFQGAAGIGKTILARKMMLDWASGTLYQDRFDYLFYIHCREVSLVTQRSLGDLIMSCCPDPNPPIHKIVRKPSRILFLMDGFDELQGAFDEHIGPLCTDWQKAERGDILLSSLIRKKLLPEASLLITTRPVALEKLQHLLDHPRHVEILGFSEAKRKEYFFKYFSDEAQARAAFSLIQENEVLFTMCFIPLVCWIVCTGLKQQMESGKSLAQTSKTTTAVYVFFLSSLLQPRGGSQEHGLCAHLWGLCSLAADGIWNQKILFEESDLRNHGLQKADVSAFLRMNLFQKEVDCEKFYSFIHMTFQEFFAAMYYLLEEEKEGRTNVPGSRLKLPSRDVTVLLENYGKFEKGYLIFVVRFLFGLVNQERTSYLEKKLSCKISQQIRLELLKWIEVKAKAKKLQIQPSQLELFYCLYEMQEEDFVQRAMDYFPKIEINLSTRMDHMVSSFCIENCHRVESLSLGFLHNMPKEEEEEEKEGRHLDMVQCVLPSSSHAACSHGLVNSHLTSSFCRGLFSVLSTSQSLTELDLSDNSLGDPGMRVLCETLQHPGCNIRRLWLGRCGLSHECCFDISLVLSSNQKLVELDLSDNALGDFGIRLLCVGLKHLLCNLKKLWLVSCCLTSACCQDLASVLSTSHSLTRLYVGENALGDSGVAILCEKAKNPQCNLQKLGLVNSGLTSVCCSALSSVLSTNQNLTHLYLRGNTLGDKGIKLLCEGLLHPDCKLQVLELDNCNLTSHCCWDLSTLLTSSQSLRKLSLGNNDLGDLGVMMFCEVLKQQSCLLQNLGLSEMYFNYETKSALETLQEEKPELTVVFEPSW

SMILES | IC50 (NLRP3 [1]) | IC50 (NLRP3 [2])
Cc1nc(N[C@H]2CCCN3CCC[C@H]23)nnc1-c1ccc(C(F)(F)F)cc1O (racemic) [Example 26, 2-[5-Methyl-3-[[rac-(8S,8aR)-1,2,3,5,6,7,8,8a-octahydroindolizin-8-yl]amino]-1,2,4-triazin-6-yl]-5-(trifluoromethyl) phenol] | 5.1 nM | 
Cc1nc(N[C@H]2CCCN3CCC[C@@H]23)nnc1-c1ccc(C(F)(F)F)cc1O (racemic) [Example 27, 2-[5-Methyl-3-[[rac-(8S,8aS)-1,2,3,5,6,7,8,8a-octahydroindolizin-8-yl]amino]-1,2,4-triazin-6-yl]-5-(trifluoromethyl) phenol] | 20.9 nM | 
Cc1nc(N[C@@H]2CCCN(C(C)(C)C)C2)nnc1-c1ccc(C(F)(F)F)cc1O (single isomer, unassigned) [Example 10, 2-[3-[[(3R or 3S)-1-tert-Butyl-3-piperidyl]amino]-5-methyl-1,2,4-triazin-6-yl]-5-(trifluoromethyl) phenol] | 434 nM | 
Cc1nc(NC2CCCN3CCCC23)nnc1-c1ccc(C(F)(F)F)cc1O (single isomer, unassigned) [Example 28] | 2.4 nM | 18.8 nM
Cc1nc(NC2CCCN3CCCC23)nnc1-c1ccc(C(F)(F)F)cc1O (single isomer, unassigned) [Example 29] | 163 nM | 
Cc1nc(NC2CCC3CCCN3C2)nnc1-c1ccc(C(F)(F)F)cc1O (single isomer, unassigned) [Example 31, 2-[3-[[(6S or 6R,8aS or 8aR)-1,2,3,5,6,7,8,8a-octahydroindolizin-6-yl]amino]-5-methyl-1,2,4-triazin-6-yl]-5-(trifluoromethyl) phenol] | > 1000 nM | 
Cc1nc(NC2CCC3CCCN3C2)nnc1-c1ccc(C(F)(F)F)cc1O (single isomer, unassigned) [Example 32, 2-[3-[[(6R or 6S,8aS or 8aR)-1,2,3,5,6,7,8,8a-octahydroindolizin-6-yl]amino]-5-methyl-1,2,4-triazin-6-yl]-5-(trifluoromethyl) phenol] | 16.1 nM | 36.5 nM
CCN1CCC[C@@H](Nc2ncc(-c3c(C)cc(C(F)(F)F)cc3O)nn2)C1 [Example 1, 2-[3-[[(3R)-1-Ethyl-3-piperidyl]amino]-1,2,4-triazin-6-yl]-3-methyl-5-(trifluoromethyl) phenol; 2,2,2-trifluoroacetic acid] | 9 nM | 39 nM
CCN1CCC[C@@H](Nc2nnc(-c3ccc(Cl)cc3O)c(C)n2)C1 [Example 5, 5-Chloro-2-[3-[[(3R)-1-ethyl-3-piperidyl]amino]-5-methyl-1,2,4-triazin-6-yl]phenol] | 1.3 nM | 3.8 nM
CCN1CCC[C@@H](Nc2nnc(-c3ccc(C#N)cc3O)c(C)n2)C1 [Example 12, 4-[3-[[(3R)-1-Ethyl-3-piperidyl]amino]-5-methyl-1,2,4-triazin-6-yl]-3-hydroxy-benzonitrile] | 20.5 nM | 23.9 nM
Cc1nc(N[C@@H]2C[C@H](F)CN(C)C2)nnc1-c1ccc(C(F)(F)F)cc1O [Example 13, 2-[3-[[(3R,5S)-5-Fluoro-1-methyl-3-piperidyl]amino]-5-methyl-1,2,4-triazin-6-yl]-5-(trifluoromethyl) phenol] | 77 nM | 
Cc1nc(NC2CCCn3ccnc32)nnc1-c1ccc(C(F)(F)F)cc1O (centres unmarked) [Example 14, 2-[5-Methyl-3-(5,6,7,8-tetrahydroimidazo[1,2-a]pyridin-8-ylamino)-1,2,4-triazin-6-yl]-5-(trifluoromethyl) phenol] | 350 nM | 
Cc1nc(N[C@@H]2CCCN(C)C2)nnc1-c1ccc(F)cc1O [Example 15, 5-Fluoro-2-[5-methyl-3-[[(3R)-1-methyl-3-piperidyl]amino]-1,2,4-triazin-6-yl]phenol] | 18.3 nM | 15.1 nM
Cc1nc(N[C@@H]2CCCN(C)C2)nnc1-c1ccc(Cl)cc1O [Example 16, 5-Chloro-2-[5-methyl-3-[[(3R)-1-methyl-3-piperidyl]amino]-1,2,4-triazin-6-yl]phenol] | 1.5 nM | 13.2 nM
Cc1nc(N[C@@H]2CCCNC2)nnc1-c1ccc(C(F)(F)F)cc1O [Example 17, 2-[5-Methyl-3-[[(3R)-3-piperidyl]amino]-1,2,4-triazin-6-yl]-5-(trifluoromethyl) phenol] | 13.4 nM | 46.5 nM
Cc1nc(N[C@@H]2CCCN(C)C2)nnc1-c1ccc(C(F)(F)F)cc1O [Example 18, 2-[5-Methyl-3-[[(3R)-1-methyl-3-piperidyl]amino]-1,2,4-triazin-6-yl]-5-(trifluoromethyl) phenol] | 1 nM | 20.2 nM
CCN1CCC[C@@H](Nc2nnc(-c3ccc(C(F)(F)F)cc3O)c(C(F)(F)F)n2)C1 [Example 30, 2-[3-[[(3R)-1-Ethyl-3-piperidyl]amino]-5-(trifluoromethyl)-1,2,4-triazin-6-yl]-5-(trifluoromethyl) phenol; 2,2,2-trifluoroacetic acid] | 111 nM | 

More lines, in order of falling IC50 (NLRP3 [1]), values ahead:

IC50 (NLRP3 [1]) | IC50 (NLRP3 [2]) | SMILES
209 nM |  | Cc1nc(NC2CCC3CCCN3C2)nnc1-c1ccc(C(F)(F)F)cc1O (single isomer, unassigned) [Example 34, 2-[3-[[(6R or 6S, 8aR or 8aS)-1,2,3,5,6,7,8,8a-octahydroindolizin-6-yl]amino]-5-methyl-1,2,4-triazin-6-yl]-5-(trifluoromethyl) phenol]
107 nM | 191 nM | Cc1nc(N[C@H]2C[C@@](C)(O)C2)nnc1-c1ccc(C(F)(F)F)cc1O [Example 3, 2-[3-[(3-Hydroxy-3-methyl-cyclobutyl)amino]-5-methyl-1,2,4-triazin-6-yl]-5-(trifluoromethyl) phenol]
46.1 nM | 300 nM | Cc1nc(NC2CCC3CCCN3C2)nnc1-c1ccc(C(F)(F)F)cc1O (single isomer, unassigned) [Example 33, 2-[3-[[(6S or 6R,8aR or 8aS)-1,2,3,5,6,7,8,8a-octahydroindolizin-6-yl]amino]-5-methyl-1,2,4-triazin-6-yl]-5-(trifluoromethyl) phenol]
32.2 nM | 228 nM | Cc1nc(N[C@@H]2CCCC[C@H]2O)nnc1-c1ccc(C(F)(F)F)cc1O [Example 19, 2-[3-[[(1R,2R)-2-Hydroxycyclohexyl]amino]-5-methyl-1,2,4-triazin-6-yl]-5-(trifluoromethyl) phenol]
15.5 nM | 14.6 nM | CCN1CCC[C@@H](Nc2nnc(-c3ccc(F)cc3O)c(C)n2)C1 [Example 6, 2-[3-[[(3R)-1-Ethyl-3-piperidyl]amino]-5-methyl-1,2,4-triazin-6-yl]-5-fluoro-phenol]
3.5 nM | 27.4 nM | CCN1CCC[C@@H](Nc2nnc(-c3c(O)cc(C(F)(F)F)cc3F)c(C)n2)C1 [Example 9, 2-[3-[[(3R)-1-Ethyl-3-piperidyl]amino]-5-methyl-1,2,4-triazin-6-yl]-3-fluoro-5-(trifluoromethyl) phenol]
2.2 nM | 15.6 nM | Cc1nc(NC2CCCN(C(C)(C)C)C2)nnc1-c1ccc(C(F)(F)F)cc1O (single isomer, unassigned) [Example 11, 2-[3-[[(3S or 3R)-1-tert-Butyl-3-piperidyl]amino]-5-methyl-1,2,4-triazin-6-yl]-5-(trifluoromethyl) phenol]
0.4 nM | 4.3 nM | CCN1CCC[C@@H](Nc2nnc(-c3ccc4c(c3O)CC4)c(C)n2)C1 [Example 8, 3-[3-[[(3R)-1-Ethyl-3-piperidyl]amino]-5-methyl-1,2,4-triazin-6-yl]bicyclo[4.2.0]octa-1(6),2,4-trien-2-ol]
